Reference: patent publication US20230044787A1, “TRICYCLE DIHYDROIMIDAZOPYRIMIDONE DERIVATIVE, PREPARATION METHOD THEREOF, PHARMACEUTICAL COMPOSITION AND USE THEREOF” (priority 2019, published 2023)

Molecular target: T1, Lp-PLA2 (Homo sapiens, UniProt Q13093)
T1 construct: aliquoted and thawed 40 μL of pooled human plasma was previously added; from tissue; host or cells: pooled human plasma
T1 sequence (Q13093 22-441): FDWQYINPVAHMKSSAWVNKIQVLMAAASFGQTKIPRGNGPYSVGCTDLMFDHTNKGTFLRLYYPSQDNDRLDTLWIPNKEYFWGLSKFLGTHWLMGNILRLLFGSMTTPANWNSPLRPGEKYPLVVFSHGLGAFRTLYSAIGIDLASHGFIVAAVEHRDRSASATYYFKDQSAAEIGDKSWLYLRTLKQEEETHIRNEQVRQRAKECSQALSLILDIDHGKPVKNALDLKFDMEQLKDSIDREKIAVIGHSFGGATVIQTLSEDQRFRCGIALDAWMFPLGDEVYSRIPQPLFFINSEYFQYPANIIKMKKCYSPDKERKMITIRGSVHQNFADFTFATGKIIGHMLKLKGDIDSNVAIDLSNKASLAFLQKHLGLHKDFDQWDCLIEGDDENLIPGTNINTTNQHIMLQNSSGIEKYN
Assay: Lipoprotein-associated phospholipase A2 (Lp-PLA2) human plasma assay (Thio-PAF assay)
Format: biochemical
Details: Comparison of activity data (I); pooled human plasma, 2-thio-PAF substrate, 30-min pre-incubation

Compound CC12COCCN1c1cc(OCc3cc(F)c(F)c(F)c3)nc(=O)n1C2 (stereo not shown) [Example 86] has an IC50 of 6.1 nM.

Same assay, conditions: Lp-PLA2 human plasma assay (Thio-PAF), pooled human plasma, 30-min pre-incubation at room temperature

Compared with CCC12CCCCN1c1cc(OCc3cc(F)c(Oc4ccnc(C(F)(F)F)c4)c(F)c3)nc(=O)n1C2 (stereo not shown) [Example 75, 3-((3,5-difluoro-4-((2-(trifluoromethyl)pyridin-4-yl)oxy)benzyl)oxy)-9a-ethyl-6,7,8,9,9a,10-hexahydro-1H-pyrido[1′,2′:3,4]imidazo [1,2-c]pyrimidin-1-one], CCC12CCCCN1c1cc(OCc3cc(F)c(Oc4ccc(C(F)(F)F)nc4)c(F)c3)nc(=O)n1C2 (stereo not shown) [Example 76, 3-((3,5-difluoro-4-((6-(trifluoromethyl)pyridin-3-yl)oxy)benzyl)oxy)-9a-ethyl-6,7,8,9,9a,10-hexahydro-1H-pyrido[1′,2′:3,4]imidazo [1,2-c]pyrimidin-1-one] is 1.8-fold higher in IC50: 23.4 nM for the first, 42.2 nM for the second. The first is the more potent here.

CCC12CCCCN1c1cc(OCc3ccc(Oc4cccc(C(F)(F)F)c4)c(C#N)c3)nc(=O)n1C2 (stereo not shown) [Example 77, 5-(((9a-ethyl-1-oxo-6,7,8,9,9a,10-hexahydro-1H-pyrido[1′,2′:3,4]imidazo [1,2-c]pyrimidin-3-yl)oxy)methyl)-2-(3-(trifluoromethyl)phenoxy) benzonitrile] and CC12COCCN1c1cc(OCc3ccc(Oc4cccc(C(F)(F)F)c4)c(C#N)c3)nc(=O)n1C2 (stereo not shown) [Example 85] are within 1.5-fold of each other in IC50: 5.7 nM for the first, 6.7 nM for the second.

CC12COCCN1c1cc(OCc3cc(F)c(Oc4ccnc(C(F)(F)F)c4)c(F)c3)nc(=O)n1C2 (stereo not shown) [Example 78, 7-((3,5-difluoro-4-((2-(trifluoromethyl)pyridin-4-yl)oxy)benzyl)oxy)-11a-methyl-3,4,11,11a-tetrahydro-1H,9H-pyrimido[6′,1′:2,3]imidazo [5,1-c][1,4]oxazin-9-one] and CC12COCCN1c1cc(OCc3cc(F)c(Oc4ccc(C(F)(F)F)nc4)c(F)c3)nc(=O)n1C2 (stereo not shown) [Example 81, 7-((3,5-difluoro-4-((6-(trifluoromethyl)pyridin-3-yl)oxy)benzyl)oxy)-11a-methyl-3,4,11,11a-tetrahydro-1H,9H-pyrimido[6′,1′:2,3]imidazo [5,1-c][1,4]oxazin-9-one] are within 1.5-fold of each other in IC50: 5 nM for the first, 5.1 nM for the second.

First: Cc1cc(Oc2c(F)cc(COc3cc4n(c(=O)n3)CC3(C)COCCN43)cc2F)ccn1 (stereo not shown) [Example 79, 7-((3,5-difluoro-4-((2-methyl-pyridin-4-yl)oxy)benzyl)oxy)-11a-methyl-3,4,11,11a-tetrahydro-1H,9H-pyrimido[6′,1′:2,3]imidazo [5,1-c][1,4]oxazin-9-one]
Second: CC12COCCN1c1cc(OCc3cc(F)c(Oc4ccc(Cl)c(C(F)(F)F)c4)c(F)c3)nc(=O)n1C2 (stereo not shown) [Example 82, 7-((4-(4-chloro-3-(trifluoromethyl)phenoxy)-3,5-difluorobenzyl)oxy)-11a-methyl-3,4,11,11a-tetrahydro-1H,9H-pyrimido[6′,1′:2,3]imidazo [5,1-c][1,4]oxazin-9-one]
The IC50 of the first is 3-fold higher: 6.1 nM for the first, 2 nM for the second.

CC12COCCN1c1cc(OCc3cc(F)c(Oc4cncc(C(F)(F)F)c4)c(F)c3)nc(=O)n1C2 (stereo not shown) [Example 80, 7-((3,5-difluoro-4-((5-(trifluoromethyl)pyridin-3-yl)oxy)benzyl)oxy)-11a-methyl-3,4,11,11a-tetrahydro-1H,9H-pyrimido[6′,1′:2,3]imidazo [5,1-c][1,4]oxazin-9-one] and CC12COCCN1c1cc(OCc3ccc(Oc4cc(C#N)cc(C(F)(F)F)c4)c(F)c3)nc(=O)n1C2 (stereo not shown) [Example 83] are within 1.5-fold of each other in IC50: 3.3 nM for the first, 4.9 nM for the second.

CC12COCCN1c1cc(OCc3ccc(Oc4ccc(Cl)c(C(F)(F)F)c4)c(C#N)c3)nc(=O)n1C2 (stereo not shown) [Example 84] and N#Cc1cc(Oc2ccc(COc3cc4n(c(=O)n3)CC35CC(CN43)C5)cc2F)cc(C(F)(F)F)c1 [Example 95] are within 1.5-fold of each other in IC50: 6.2 nM for the first, 7.4 nM for the second.

First: CC12COCCN1c1cc(OCc3cc(F)c(F)c(F)c3)nc(=O)n1C2 (stereo not shown) [Example 86]
Second: O=c1nc(OCc2cc(F)c(F)c(F)c2)cc2n1CC13CC(CN21)C3 [Example 98, 3-((3,4,5-trifluorobenzyl)oxy)-7,8-dihydro-1H,6H,9H-7,8a-methanopyrrolo[1′,2′:3,4] imidazo[1,2-c]pyrimidin-1-one]
The IC50 of the first is 5-fold lower: 6.1 nM for the first, 30.2 nM for the second.

O=c1nc(OCc2cc(F)c(Oc3ccnc(C(F)(F)F)c3)c(F)c2)c(F)c2n1C[C@]13CO[C@H](CN21)C3 [Example 88, (3S,11aR)-7-((3,5-difluoro-4-((2-(trifluoromethyl)pyridin-4-yl)oxy)benzyl)oxy)-6-fluoro-3,4-dihydro-1H,9H,11H-3,11a-methanopyrimido[6′,1′:2,3] imidazo[5,1-c][1,4]oxazin-9-one] and O=c1nc(OCc2cc(F)c(Oc3ccnc(C(F)(F)F)c3)c(F)c2)c(Cl)c2n1C[C@]13CO[C@H](CN21)C3 [Example 91, (3S,11aR)-7-((3,5-difluoro-4-((2-(trifluoromethyl)pyridin-4-yl)oxy)benzyl)oxy)-6-chloro-3,4-dihydro-1H,9H,11H-3,11a-methanopyrimido[6′,1′:2,3] imidazo[5,1-c][1,4]oxazin-9-one] are within 1.5-fold of each other in IC50: 5.2 nM for the first, 4.8 nM for the second.

Going from Cc1cc(Oc2c(F)cc(COc3nc(=O)n4c(c3F)N3C[C@@H]5C[C@]3(CO5)C4)cc2F)ccn1 [Example 89, (3S,11aR)-7-((3,5-difluoro-4-((2-methyl-pyridin-4-yl)oxy)benzyl)oxy)-6-fluoro-3,4-dihydro-1H,9H,11H-3,11a-methanopyrimido[6′,1′:2,3] imidazo[5,1-c][1,4]oxazin-9-one] to Cc1c(OCc2cc(F)c(Oc3ccnc(C(F)(F)F)c3)c(F)c2)nc(=O)n2c1N1C[C@@H]3C[C@]1(CO3)C2 [Example 92, (3S,11aR)-7-((3,5-difluoro-4-((2-(trifluoromethyl)pyridin-4-yl)oxy)benzyl)oxy)-6-methyl-3,4-dihydro-1H,9H,11H-3,11a-methanopyrimido[6′,1′:2,3] imidazo[5,1-c][1,4]oxazin-9-one], the IC50 falls from 10.9 nM to 5.6 nM (1.9-fold). The second is the more potent here.

N#Cc1cc(Oc2ccc(COc3nc(=O)n4c(c3F)N3C[C@@H]5C[C@]3(CO5)C4)cc2F)cc(C(F)(F)F)c1 [Example 90] and O=c1nc(OCCc2cc(F)c(Oc3ccnc(C(F)(F)F)c3)c(F)c2)cc2n1C[C@]13CO[C@H](CN21)C3 [Example 99, (3S,11aR)-7-(3,5-difluoro-4-((2-(trifluoromethyl)pyridin-4-yl)oxy)phenethoxy)-3,4-dihydro-1H,9H,11H-3,11a-methanopyrimido[6′-,1′:2,3] imidazo[5,1-c][1,4]oxazin-9-one] are within 1.5-fold of each other in IC50: 4.8 nM for the first, 5.6 nM for the second.

[2H]C1([2H])n2c(cc(OCc3cc(F)c(Oc4ccnc(C(F)(F)F)c4)c(F)c3)nc2=O)N2C[C@@H]3C[C@@]21CO3 [Example 93] and O=c1nc(OCc2ccc(Oc3ccnc(C(F)(F)F)c3)cc2F)cc2n1C[C@]13CO[C@H](CN21)C3 [Example 96, (3S,11aR)-7-((2-difluoro-4-((2-(trifluoromethyl)pyridin-4-yl)oxy)benzyl)oxy)-3,4-dihydro-1H,9H,11H-3,11a-methanopyrimido[6′1′:2,3] imidazo[5,1-c][1,4]oxazin-9-one] are within 1.5-fold of each other in IC50: 3.7 nM for the first, 4.7 nM for the second.

Compared with Cn1cc(Oc2c(F)cc(COc3cc4n(c(=O)n3)CC35CC(CN43)C5)cc2F)cn1 [Example 94, 3-((3,5-difluoro-4-((1-methyl-1H-pyrazol-4-yl)oxy)benzyl)oxy)-7,8-dihydro-1H,6H,9H-7,8a-methanopyrrolo[1′,2′:3,4] imidazo[1,2-c]pyrimidin-1-one], O=c1nc(OCc2ccc(F)c(F)c2)cc2n1CC13CC(CN21)C3 [Example 97, 3-((3,4-difluorobenzyl)oxy)-7,8-dihydro-1H,6H,9H-7,8a-methanopyrrolo[1′,2′:3,4] imidazo[1,2-c]pyrimidin-1-one] is 6.5-fold lower in IC50: 92.7 nM for the first, 14.2 nM for the second.
